Laboratory results from patent US6436905B1, “Lipid-containing compositions and uses thereof” (Aston University, priority 1997, dated 2002).

Test: Pulsating bubble surfactometry: minimum surface tension and time to reach it
Type: physicochemical
Excerpt: One of the most important properties of the polymer/phospholipid complexes in accordance with the invention, especially for use as artificial lung surfactants, is the manner in which the surface tension varies with repetitive changes in surface area, and one test method that has been used is a pulsating bubble technique using a pulsating bubble surfactometer which consists of a sample chamber, pulsator unit and pressure-recording device. In a particular example, the sample chamber is made up of a capillary tube (ID 0.5 mm) inserted into a wider diameter tube (ID 1.5 mm). The latter is filled with the sample liquid and connected to a pulsator unit and pressure transducer. Air is drawn in through the capillary tube which acts as an airways forming a bubble of air within the sample chamber. This bubble serves as a model alveolus. […] Variations of pressure within the bubble, during each pulsation cycle, are measured by a transducer and combined with values of bubble volume to calculate changes in surface tension.
This pulsating bubble technique simulates to some extent the contraction and expansion of the alveoli sacks in the lungs and allows the surface tension to be assessed at minimum and maximum bubble volumes, and allows the effect of repeated expansion and compression cycles upon the adsorption of surface active components to be observed and quantified. This technique has been used as a model in vitro system for testing the efficacy of synthetic lung surfactants. Some results of tests carried out not only on the complexes prepared in accordance with the invention, but also on the membrane-forming phospholipids used and the polymers themselves, as well as on commercially available lung surfactants, are summarised in the Tables at the end of the present description.
Showing minimum Surface Tension (ST) value achieved and time to reach this level.
Pulse Rate (PR)=34, Temp=Room Temp & pH=7.0 unless otherwise stated.

[1] = 1.0%, pH 3.22, PR = 12, room temp
[2] = 1.0%, pH 7.0 (default), PR 34, room temp, 2 hrs hydration
[3] = 1.0%, pH 7.0 (default), PR 34, room temp, 12 hr hydration
[4] = 1.0%, pH 9.33, PR = 12, room temp
[5] = 1.0%, pH 12.00, PR 34, room temp
[6] = […], pH 7.0 (default), PR 34, room temp, Sonicated
[7] = LALE 1.0%, pH 7.0 (default), PR 34, room temp
[8] = DLPC (fresh) sonicated 0.5, pH 3.92, 24.0 °C, pulse rate 30/min
[9] = DLPC (fresh) 0.5, pH 7.12, 25.1 °C, pulse rate 30/min
[10] = DPPC 0.5, pH 4.1, 21.9 °C, pulse rate 30/min
[11] = DPPC (fresh) 0.5, pH 6.3, 24.9 °C, pulse rate 30/min
[12] = DPPC sonicated 0.5, pH 7.3, 23.1 °C, pulse rate 30/min
[13] = DPPC sonicated 0.5, pH 7.3, 37.5 °C, pulse rate 30/min
[14] = DPPC sonicated 0.5, pH 7.3, 24.0 °C, pulse rate 30/min
[15] = DPPC sonicated 0.5, pH 7.3, 37.5 °C, after 40 mins at room temp, pulse rate 30/min

With `CCCCCCCCCCCC(=O)OC[C@H](COP(=O)([O-])OCC[N+](C)(C)C)OC(=O)CCCCCCCCCCC` [DLPC, Dilaurylphosphatidylcholine] the “Minimal ST” value [1] was 6.39 dynes/cm, the “Time to Develop” value [1] was 30 min and the “Minimal ST” value [2] was 6.82 dynes/cm. For the same molecule, the “Time to Develop” value [2] was 20 min, the “Minimal ST” value [3] was 24.89 dynes/cm and the “Time to Develop” value [3] was 30 min. For the same molecule, the “Minimal ST” value [4] was 15.66 dynes/cm, the “Time to Develop” value [4] was 30 min and the “Minimal ST” value [5] was 15.10 dynes/cm. For the same molecule, the “Time to Develop” value [5] was 30 min, the “Minimal ST” value [6] was 9.60 dynes/cm and the “Time to Develop” value [6] was 30 min.

For `CCCCCCCCCCCCOC(=O)CCCCCCCCCCC` [LALE, Lauric acid lauryl ester], the “Minimal ST” value [7] was 22.61 dynes/cm and the “Time to Develop” value [7] was 30 min.

In the case of `CCCCCCCCCCCC(=O)OC[C@H](COP(=O)([O-])OCC[N+](C)(C)C)OC(=O)CCCCCCCCCCC` [dlf5], the Time to Develop (DLPC (fresh) 0.5, pH 5.47, 24.0 °C, pulse rate 30/min, first line) was 20 min, the “Minimal ST <10 dynes/cm” value (DLPC (fresh) 0.5, pH 5.47, 24.0 °C, pulse rate 30/min, first line (time 20)) was 12.57 dynes/cm and the Time to Develop (DLPC (fresh) 0.5, pH 5.47, 24.0 °C, pulse rate 30/min, second line) was 40 min. The “Minimal ST <10 dynes/cm” value (DLPC (fresh) 0.5, pH 5.47, 24.0 °C, pulse rate 30/min, second line (time 40)) was 0.04 dynes/cm.

With `CCCCCCCCCCCC(=O)OC[C@H](COP(=O)([O-])OCC[N+](C)(C)C)OC(=O)CCCCCCCCCCC` [dlfs4] the “Minimal ST <10 dynes/cm” value [8] was 1.67 dynes/cm and the Time to Develop [8] was 10 min.

For `CCCCCCCCCCCC(=O)OC[C@H](COP(=O)([O-])OCC[N+](C)(C)C)OC(=O)CCCCCCCCCCC` [dlfs7], the “Minimal ST <10 dynes/cm” value [9] was 18.25 dynes/cm and the Time to Develop [9] was 20 min.

In the case of `CCCCCCCCCCCCCCCC(=O)OC[C@H](COP(=O)([O-])OCC[N+](C)(C)C)OC(=O)CCCCCCCCCCCCCCC` [dlpf4], the “Minimal ST <10 dynes/cm” value [10] was 5.31 dynes/cm and the Time to Develop [10] was 30 min.

With `CCCCCCCCCCCCCCCC(=O)OC[C@H](COP(=O)([O-])OCC[N+](C)(C)C)OC(=O)CCCCCCCCCCCCCCC` [dlpf6] the “Minimal ST <10 dynes/cm” value [11] was 16.18 dynes/cm and the Time to Develop [11] was 30 min.

With `CCCCCCCCCCCCCCCC(=O)OC[C@H](COP(=O)([O-])OCC[N+](C)(C)C)OC(=O)CCCCCCCCCCCCCCC` [dlpf7] the “Minimal ST <10 dynes/cm” value [12] was 20.36 dynes/cm and the Time to Develop [12] was 40 min.

In the case of `CCCCCCCCCCCCCCCC(=O)OC[C@H](COP(=O)([O-])OCC[N+](C)(C)C)OC(=O)CCCCCCCCCCCCCCC` [dp7st], the “Minimal ST <10 dynes/cm” value [13] was 26.58 dynes/cm and the Time to Develop [13] was 2 min.

With `CCCCCCCCCCCCCCCC(=O)OC[C@H](COP(=O)([O-])OCC[N+](C)(C)C)OC(=O)CCCCCCCCCCCCCCC` [dpf7s] the “Minimal ST <10 dynes/cm” value [14] was 9.99 dynes/cm, the Time to Develop [14] was 20 min and the “Minimal ST <10 dynes/cm” value [15] was 27.95 dynes/cm. For the same molecule, the Time to Develop [15] was 40 min.
